# Test results from patent publication US20250154127A1, “BICYCLIC HETEROARYL COMPOUNDS AND USES THEREOF” (ETERN BIOPHARMA (SHANGHAI) CO., LTD., priority 2022, published 2025).
# Tests used:
# MSTO-211H cells = assay: Proliferation Assay (CellTiter-Glo Luminescent Cell Viability Assay); type: cell-based; settings: Homo sapiens, 96 hours treatment
# Protocol: Example 5: Proliferation Assay
# The effect of compound on YAP driven cancer cells proliferation was assessed in MSTO-211H (ATCC, CRL-2081TM) or NCI-H2052 (ATCC, CRL-5915TM) cells using CellTiter-Glo Luminescent Cell Viability Assay (Promega, G7570).
# Briefly, individual cell lines were seeded in 96-well cell culture plate at the density of 1,500 cells per well and cultured in RPMII1640 (Gibco-A10491-01)+10% FBS (Gibco-10099-141C)+1% Penicillin-Streptomycin (5,000 U/mL, Gibco-15070-063) overnight at 37° C. with 5% CO2 before adding the compounds.
# Following incubation, serial dilutions of compounds dissolved in DMSO were added to each well (3-fold dilution with 9 concentration points). The final concentration of DMSO present in this assay is below 0.5% and make duplication for each compound treated well.
# Following 96 hours treatment, compound mediated cell growth inhibition was measured using CellTiter-Go Luminescent Cell Viability Assay (Promega, G7570). […] CellTiter-Glo in each assay well, mix and incubate at room temperature for 10 min. Read signal using EnVision® Multilabel Plate Reader (Perkin Elmer).
# For data analysis, cell proliferation inhibition was calculated using the following formula:
# Inhibition %=(1−(Compound treated well CTG signal/DMSO well CTG signal))*100.
# IC50 values were calculated using GraphPad Prism software using a four-parameter fit model.
# [1] = molecular target: TEAD1(210-426) binding to YAP(50-100) (Homo sapiens, UniProt P28347); assay: TR-FRET Assay for TEAD1(210-426) Binding to YAP(50-100); settings: His-TEAD 10 nM, YAP-Biotin peptide 50 nM
# Protocol: Compounds were performed 3 fold serial dilution, 12 data points, added to 384 well white plate. The final DMSO concentration is 1%, duplicate for each concentration. Then His-TEAD protein was added to a final concentration of 10 nM, and allowed to preincubate for 30 minutes at room temperature. Assay buffer was added as background control.
# YAP-Biotin peptide was added to a final concentration of 50 nM, mixed well, incubate 10 minutes at room temperature. The YAP(50-100) peptide sequence used here is named SEQ ID NO: 2
# The Europium-labeled anti-6×His antibody and APC labeled streptavidin were diluted according to the instructions, this detection solution was mixed 1:1 with reaction solution, incubated 1 hour at room temperature.
# TR-FRET measurements were made on an Envision (Perkin Elmer), using an excitation wavelength of 320 nm and emissions read at 620 nm and 665 nm. The ratio of the 665 nm to the 620 nm multiply 10000 provides a normalized TR-FRET signal that represents the extent of binding.
# Half inhibition concentration IC50 value was calculated by XLfit software.
# Sequence of TEAD1(210-426) binding to YAP(50-100) (P28347 209-426): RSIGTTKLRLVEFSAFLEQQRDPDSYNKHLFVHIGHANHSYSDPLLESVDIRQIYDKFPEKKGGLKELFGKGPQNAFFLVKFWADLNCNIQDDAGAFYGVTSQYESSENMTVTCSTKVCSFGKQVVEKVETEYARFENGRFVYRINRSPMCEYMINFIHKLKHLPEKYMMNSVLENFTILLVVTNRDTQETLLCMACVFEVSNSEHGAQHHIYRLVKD
SMILES,IC50 (MSTO-211H cells) [nM],IC50 [1] [nM]
"C[C@@H](c1cccnc1)n1ccc(-c2nn(-c3ccc(C(F)(F)F)cc3)c3ccccc23)cc1=O [Compound 13, (S)-1-(1-(pyridin-3-yl)ethyl)-4-(1-(4-(trifluoromethyl)phenyl)-1H-indazol-3-yl)pyridin-2(1H)-one]",≤ 1000,≤ 100
"CNc1nccc(Cn2ccc(-c3nn(-c4ccc(C(F)(F)F)cc4)c4c(F)cccc34)cc2=O)n1 [Compound 128, 4-(7-fluoro-1-(4-(trifluoromethyl)phenyl)-1H-indazol-3-yl)-1-((2-(methylamino)pyrimidin-4-yl)methyl)pyridin-2(1H)-one]",≤ 1000,≤ 100
"O=c1cc(-c2nn(-c3ccc(C(F)(F)F)cc3)c3ccccc23)ccn1Cc1cccnn1 [Compound 62, 1-(pyridazin-3-ylmethyl)-4-(1-(4-(trifluoromethyl)phenyl)-1H-indazol-3-yl)pyridin-2(1H)-one]",≤ 1000,≤ 100
"Cn1ccc(Cn2ccc(-c3nn(-c4ccc(C(F)(F)F)cc4)c4ccccc34)cc2=O)n1 [Compound 38, 1-((1-methyl-1H-pyrazol-3-yl)methyl)-4-(1-(4-(trifluoromethyl)phenyl)-1H-indazol-3-yl)pyridin-2(1H)-one]",≤ 1000,≤ 100
CNc1nccc(Cn2ccc(-c3nn(-c4ccc(C5COC5)cc4)c4c(F)cccc34)cc2=O)n1 [Compound 152],≤ 1000,≤ 100
"O=c1cc(-c2nn(-c3ccc(C(F)(F)F)cc3)c3ccccc23)ccn1Cc1nccc(N2CC[C@H](O)C2)n1 [Compound 55, (S)-1-((4-(3-hydroxypyrrolidin-1-yl)pyrimidin-2-yl)methyl)-4-(1-(4-(trifluoromethyl)phenyl)-1H-indazol-3-yl)pyridin-2(1H)-one]",≤ 1000,≤ 100
"C[C@@H](c1ccccn1)n1ccc(-c2nn(-c3ccc(Cl)cc3)c3cccnc23)cc1=O [Compound 5, (S)-4-(1-(4-chlorophenyl)-1H-pyrazolo[4,3-b]pyridin-3-yl)-1-(1-(pyridin-2-yl)ethyl)pyridin-2(1H)-one]",1000 to 10000,≤ 100
"CNc1nccc(Cn2ccc(-c3nn(-c4ccc(F)cc4)c4ncccc34)cc2=O)n1 [Compound 58, 4-(1-(4-fluorophenyl)-1H-pyrazolo[3,4-b]pyridin-3-yl)-1-((2-(methylamino)pyrimidin-4-yl)methyl) pyridin-2(1H)-one]",≤ 1000,≤ 100
"C[C@H](c1ccccn1)n1ccc(-c2nn(-c3ccc(C(F)(F)F)cc3)c3cccnc23)cc1=O [Compound 3, (R)-1-(1-(pyridin-2-yl)ethyl)-4-(1-(4-(trifluoromethyl)phenyl)-1H-pyrazolo[4,3-b]pyridin-3-yl)pyridin-2(1H)-one]",1000 to 10000,100 to 1000
"O=c1cc(-c2nn(-c3ccc(C(F)(F)F)cc3)c3ccccc23)ccn1Cc1ccncc1 [Compound 19, 1-(pyridin-4-ylmethyl)-4-(1-(4-(trifluoromethyl)phenyl)-1H-indazol-3-yl)pyridin-2(1H)-one]",≤ 1000,≤ 100
"CN(C)c1nccc(Cn2ccc(-c3nn(-c4ccc(C(F)(F)F)cc4)c4ccccc34)cc2=O)n1 [Compound 66, 1-((2-(dimethylamino)pyrimidin-4-yl)methyl)-4-(1-(4-(trifluoromethyl)phenyl)-1H-indazol-3-yl)pyridin-2(1H)-one]",≤ 1000,≤ 100
"O=c1cc(-c2nn(-c3ccc(C(F)(F)F)cc3)c3ccccc23)ccn1Cc1nccc(N2CCOCC2)n1 [Compound 84, 1-((4-morpholinopyrimidin-2-yl)methyl)-4-(1-(4-(trifluoromethyl)phenyl)-1H-indazol-3-yl)pyridin-2(1H)-one]",≤ 1000,≤ 100
"Cn1nc(Cn2ccc(-c3nn(-c4ccc(C(F)(F)F)cc4)c4ccccc34)cc2=O)ccc1=O [Compound 96, 2-methyl-6-((2-oxo-4-(1-(4-(trifluoromethyl)phenyl)-1H-indazol-3-yl)pyridin-1(2H)-yl)methyl)pyridazin-3(2H)-one]",1000 to 10000,≤ 100
"CNc1nccc(Cn2ccc(-c3nn(-c4ccc(C(F)(F)F)cc4)c4nccnc34)cc2=O)n1 [Compound 99, 1-((2-(methylamino)pyrimidin-4-yl)methyl)-4-(1-(4-(trifluoromethyl)phenyl)-1H-pyrazolo[3,4-b]pyrazin-3-yl)pyridin-2(1H)-one]",≤ 1000,≤ 100
"Cn1ccc(Cn2ccc(-n3nc(-c4ccc(C(F)(F)F)cc4)c4ncccc43)cc2=O)n1 [Compound 41, 1-((1-methyl-1H-pyrazol-3-yl)methyl)-4-(3-(4-(trifluoromethyl)phenyl)-1H-pyrazolo[4,3-b]pyridin-1-yl)pyridin-2(1H)-one]",≤ 1000,≤ 100
"Cn1ccc(Cn2ccc(-c3nn(-c4ccc(C(F)(F)F)cc4)c4ncccc34)cc2=O)n1 [Compound 111, 1-((1-methyl-1H-pyrazol-3-yl)methyl)-4-(1-(4-(trifluoromethyl)phenyl)-1H-pyrazolo[3,4-b]pyridin-3-yl)pyridin-2(1H)-one]",≤ 1000,≤ 100
"CNc1ccnc(Cn2ccc(-c3nn(-c4ccc(C(F)(F)F)cc4)c4ccccc34)cc2=O)n1 [Compound 69, 1-((4-(methylamino)pyrimidin-2-yl)methyl)-4-(1-(4-(trifluoromethyl)phenyl)-1H-indazol-3-yl)pyridin-2(1H)-one]",≤ 1000,≤ 100
"CO[C@H]1C[C@@H](Nc2ccnc(Cn3ccc(-c4nn(-c5ccc(C(F)(F)F)cc5)c5ccccc45)cc3=O)n2)C1 [Compound 90, 1-((4-(((1s,3s)-3-methoxycyclobutyl)amino)pyrimidin-2-yl)methyl)-4-(1-(4-(trifluoromethyl)phenyl)-1H-indazol-3-yl)pyridin-2(1H)-one]",≤ 1000,100 to 1000
O=c1cc(-c2nn(-c3ccc(C(F)(F)F)cc3)c3ccccc23)ccn1Cc1nccc(O)n1 [Compound 71],≤ 1000,≤ 100
"Nc1cc(Cn2ccc(-c3nn(-c4ccc(C(F)(F)F)cc4)c4ncccc34)cc2=O)ccn1 [Compound 112, 1-((2-aminopyridin-4-yl)methyl)-4-(1-(4-(trifluoromethyl)phenyl)-1H-pyrazolo[3,4-b]pyridin-3-yl)pyridin-2(1H)-one]",≤ 1000,≤ 100
"CNc1nccc(Cn2ccc(-c3nn(-c4ccc(OC(F)(F)F)cc4)c4c(F)cccc34)cc2=O)n1 [Compound 145, 4-(7-fluoro-1-(4-(trifluoromethoxy)phenyl)-1H-indazol-3-yl)-1-((2-(methylamino)pyrimidin-4-yl)methyl)pyridin-2(1H)-one]",≤ 1000,≤ 100
"O=c1cc(-n2nc(-c3ccc(C(F)(F)F)cc3)c3nccnc32)ccn1Cc1ccnc(NCCO)n1 [Compound 50, 1-((2-((2-hydroxyethyl)amino)pyrimidin-4-yl)methyl)-4-(3-(4-(trifluoromethyl)phenyl)-1H-pyrazolo[3,4-b]pyrazin-1-yl)pyridin-2(1H)-one]",≤ 1000,≤ 100
"O=c1cc(-c2nn(-c3ccc(C(F)(F)F)cc3)c3ccccc23)ccn1Cc1ccccn1 [Compound 12, 1-(pyridin-2-ylmethyl)-4-(1-(4-(trifluoromethyl)phenyl)-1H-indazol-3-yl)pyridin-2 (1H)-one]",1000 to 10000,≤ 100
"CN(CCO)c1nccc(Cn2ccc(-c3nn(-c4ccc(C(F)(F)F)cc4)c4ccccc34)cc2=O)n1 [Compound 94, 1-((2-((2-hydroxyethyl)(methyl)amino)pyrimidin-4-yl)methyl)-4-(1-(4-(trifluoromethyl)phenyl)-1H-indazol-3-yl)pyridin-2(1H)-one]",≤ 1000,≤ 100
"CNc1nccc(Cn2ccc(-c3nc(-c4ccc(C(F)(F)F)cc4)n4ccccc34)cc2=O)n1 [Compound 127, 1-((2-(methylamino)pyrimidin-4-yl)methyl)-4-(3-(4-(trifluoromethyl)phenyl)imidazo[1,5-a]pyridin-1-yl)pyridin-2(1H)-one]",≤ 1000,≤ 100
"C[C@@H](c1ccccn1)n1ccc(-c2nn(-c3ccc(C(F)(F)F)cc3)c3cc(CO)ccc23)cc1=O [Compound 28, (S)-4-(6-(hydroxymethyl)-1-(4-(trifluoromethyl)phenyl)-1H-indazol-3-yl)-1-(1-(pyridin-2-yl)ethyl)pyridin-2(1H)-one]",≤ 1000,≤ 100
